Converted amounts (≈) assume the structure as drawn.
Legend:
[1] = test system: E. faecalis ATCC 29212; test: direct antimicrobial activity (disc-diffusion, MIC, MBC); format: cell-based; conditions: Enterococcus faecalis, ATCC29212
Outline: (§1)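 First, discs bearing 0.4 mg of compound in DMSO were tested for growth inhibition. Next, MIC was determined, followed by MBC for bacteria or MFC for yeasts, all per EUCAST and CLSI.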

[2] = test system: E. faecium ATCC 6057; test: as above; format: cell-based; conditions: Enterococcus faecium, ATCC6057; for zone of inhibition at 0.4 mg/disc: 0.4 mg per disc, 9 mm disc (linezolid 0.03 mg, 6 mm disc), - no zone, read-out: Diameter of inhibition zone
Outline: as §1

[3] = test system: S. aureus ATCC 43300 MRSA; test: as above; format: cell-based; conditions: Staphylococcus aureus
Outline: as §1

[4] = test system: S. aureus ATCC 6538P; test: as above; format: cell-based; conditions: Staphylococcus aureus, ATCC6538P
Outline: as §1

[5] = test system: S. epidermidis ATCC 12228; test: as above; format: cell-based; conditions: Staphylococcus epidermidis, ATCC12228; for zone of inhibition at 0.4 mg/disc: 0.4 mg per disc, 9 mm disc (linezolid 0.03 mg, 6 mm disc), - no zone, read-out: Diameter of inhibition zone
Outline: as §1

[6] = test system: B. subtilis ATCC 6633; test: direct antimicrobial activity (disc-diffusion); format: cell-based; conditions: Bacillus subtilis, ATCC6633; 0.4 mg per disc, 9 mm disc (linezolid 0.03 mg, 6 mm disc); - no zone; read-out: Diameter of inhibition zone
Outline: as §1

[7] = test system: C. parapsilosis ATCC 22019; test: antifungal activity (disc-diffusion, MIC, MFC); format: cell-based, Candida parapsilosis; conditions: Lodderomyces parapsilosis, ATCC22019; fluconazole by Etest
Outline: as §1

[8] = test system: C. guilliermondii IBA 155; test: antifungal activity (disc-diffusion, MIC, MFC); format: cell-based, Candida guilliermondii; conditions: Meyerozyma guilliermondii, IBA155; fluconazole by Etest
Outline: as §1

[9] = test system: C. albicans ATCC 90028; test: antifungal activity (disc-diffusion, MIC, MFC); format: cell-based; conditions: Candida albicans, ATCC90028; fluconazole by Etest
Outline: as §1

[10] = test system: C. tropicalis ATCC 750; test: antifungal activity (disc-diffusion, MIC, MFC); format: cell-based; conditions: Candida tropicalis, ATCC750; fluconazole by Etest
Outline: as §1

[11] = test system: C. tropicalis IBA 171; test: antifungal activity (disc-diffusion, MIC, MFC); format: cell-based; conditions: Candida tropicalis, IBA171; fluconazole by Etest
Outline: as §1

[12] = test system: S. cerevisiae ATCC 9763; test: antifungal activity (disc-diffusion, MIC, MFC); format: cell-based; conditions: Saccharomyces cerevisiae, ATCC9763; fluconazole by Etest
Outline: as §1

[13] = test system: E. coli 76 KPC-2(+); test: MIC of tested agent alone, microdilution; format: cell-based; conditions: Escherichia coli; read-out: MIC of agent alone
Outline: (§2)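 Checkerboard synergy testing crossed two-fold dilutions of the tested agents or PBA (4–16 mg/L) with β-lactam dilutions (1–64 mg/L), and antibiotic MICs were read at each agent level. FICI was derived from the interface wells. Separately, each agent's own MIC came from standard microdilution.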

[14] = test system: E. coli 77 CMY-2(+); test: MIC of tested agent alone, microdilution; format: cell-based; conditions: Escherichia coli; read-out: MIC of agent alone
Outline: as §2

[15] = test system: K. pneumoniae 81 KPC-3(+); test: MIC of tested agent alone, microdilution; format: cell-based; conditions: Klebsiella pneumoniae; read-out: MIC of agent alone
Outline: as §2

[16] = test system: K. pneumoniae 83 KPC-3(+), CTX-M-3(+); test: MIC of tested agent alone, microdilution; format: cell-based; conditions: Klebsiella pneumoniae; read-out: MIC of agent alone
Outline: as §2

[17] = test system: K. pneumoniae ATCC BAA-1705 KPC-2(+); test: MIC of tested agent alone, microdilution; format: cell-based; conditions: Klebsiella pneumoniae, ATCCBAA1705; read-out: MIC of agent alone
Outline: as §2

[18] = test system: P. aeruginosa MUW 700 AmpC(+); test: MIC of tested agent alone, microdilution; format: cell-based; conditions: Pseudomonas aeruginosa; read-out: MIC of agent alone
Outline: as §2

[19] = test system: K. pneumoniae ATCC BAA 1705 KPC-2-positive; test: combination disc test CDT-KPC; format: cell-based; conditions: Klebsiella pneumoniae, BAA1705, read-out: Diameter of inhibition zone, MEM-10 disc with agent; for zone of inhibition at 300 µg/disc: agent 0.3 mg per disc
[20] = test system: P. aeruginosa MUW 700 cAmpC-positive; test: combination disc test CDT-AmpC; format: cell-based; conditions: Pseudomonas aeruginosa, read-out: Diameter of inhibition zone, CAZ-30 disc with agent; for zone of inhibition at 300 µg/disc: agent 0.3 mg per disc
[21] = test system: E. coli 77 CMY-2-positive; test: combination disc test CDT-AmpC; format: cell-based; conditions: Escherichia coli, read-out: Diameter of inhibition zone, CAZ-30 disc with agent; for zone of inhibition at 300 µg/disc: agent 0.3 mg per disc
[22] = test system: P. aeruginosa MUW 700 cAmpC-positive; test: checkerboard microdilution, antibiotic plus tested agent; format: cell-based, Pseudomonas aeruginosa
Outline: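 β-lactam 1–64 mg/L × agent/PBA 4–16 mg/L checkerboard; meropenem vs carbapenemase producers, ceftazidime vs AmpC producer; imipenem, ertapenem added for selected agents. Readout: combination MICs, FICI (average and lowest); off-scale MICs taken as next doubling.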

[23] = 0.4 mg per disc, 9 mm disc (linezolid 0.03 mg, 6 mm disc), - no zone, read-out: Diameter of inhibition zone

OB(O)c1ccc(B(O)O)c(F)c1F [1c]
MIC [1]: 200 µg/mL (≈ 991 µM)
zone of inhibition at 0.4 mg/disc [1, 23]: 16 mm
MIC [2]: 200 µg/mL (≈ 991 µM)
zone of inhibition at 0.4 mg/disc [2]: 15 mm
MIC [3]: 50 µg/mL (≈ 248 µM)
zone of inhibition at 0.4 mg/disc [3, 23]: 22 mm
MIC [4]: 25 µg/mL (≈ 124 µM)
zone of inhibition at 0.4 mg/disc [4, 23]: 22 mm
MIC [5]: 50 µg/mL (≈ 248 µM)
zone of inhibition at 0.4 mg/disc [5]: 28 mm
zone of inhibition at 0.4 mg/disc [6]: 28 mm
MIC [7]: > 400 µg/mL
MIC [8]: > 400 µg/mL
MIC [9]: > 400 µg/mL
MIC [10]: > 400 µg/mL
MIC [11]: > 400 µg/mL
MIC [12]: 200 µg/mL (≈ 991 µM)
MIC [13]: 200 µg/mL
MIC [14]: 200 µg/mL
MIC [15]: 200 µg/mL
MIC [16]: 200 µg/mL
MIC [17]: 200 µg/mL
MIC [18]: 400 µg/mL
zone of inhibition at 100 µg/disc ([19]; agent 0.1 mg per disc): 6 mm
zone of inhibition at 100 µg/disc ([20]; agent 0.1 mg per disc): 18 mm
zone of inhibition at 100 µg/disc ([21]; agent 0.1 mg per disc): 20 mm
Average FICI with ceftazidime [22]: 0.32
Interpretation of the average FICI with ceftazidime [22]: S (FICI ≤ 0.5, synergy)
Interpretation of the lowest FICI with ceftazidime [22]: S (FICI ≤ 0.5, synergy)
The lowest FICI with ceftazidime [22]: 0.17

OB(O)c1ccccc1B(O)O [3a, phenylene-1,2-diboronic acid]
MIC [1]: 400 µg/mL (≈ 2410 µM)
MIC [2]: 50 µg/mL (≈ 302 µM)
zone of inhibition at 0.4 mg/disc [2]: 16 mm
MIC [3]: 400 µg/mL (≈ 2410 µM)
MIC [4]: 200 µg/mL (≈ 1210 µM)
MIC [5]: 200 µg/mL (≈ 1210 µM)
zone of inhibition at 0.4 mg/disc [5]: 20 mm
zone of inhibition at 0.4 mg/disc [6]: 24 mm
MIC [7]: 25 µg/mL (≈ 151 µM)
MIC [8]: > 400 µg/mL
MIC [9]: > 400 µg/mL
MIC [10]: > 400 µg/mL
MIC [11]: > 400 µg/mL
MIC [12]: 25 µg/mL (≈ 151 µM)
MIC [13]: 400 µg/mL
MIC [14]: 400 µg/mL
MIC [15]: 400 µg/mL
MIC [16]: 400 µg/mL
MIC [17]: 400 µg/mL
MIC [18]: 400 µg/mL
zone of inhibition at 300 µg/disc [19]: 17 mm
zone of inhibition at 300 µg/disc [20]: 22 mm
zone of inhibition at 300 µg/disc [21]: 23 mm
Average FICI with ceftazidime [22]: 0.61
Interpretation of the average FICI with ceftazidime [22]: I (0.5 < FICI ≤ 4, indifference)
Interpretation of the lowest FICI with ceftazidime [22]: S (FICI ≤ 0.5, synergy)
The lowest FICI with ceftazidime [22]: 0.29

OB(O)c1ccc(B(O)O)cc1 [1a]
MIC [1]: 200 µg/mL (≈ 1210 µM)
MIC [2]: 400 µg/mL (≈ 2410 µM)
MIC [3]: 400 µg/mL (≈ 2410 µM)
MIC [4]: 200 µg/mL (≈ 1210 µM)
MIC [5]: 400 µg/mL (≈ 2410 µM)
zone of inhibition at 0.4 mg/disc [5]: 14 mm
zone of inhibition at 0.4 mg/disc [6]: 17 mm
MIC [7]: > 400 µg/mL
MIC [8]: > 400 µg/mL
MIC [9]: > 400 µg/mL
MIC [10]: > 400 µg/mL
MIC [11]: > 400 µg/mL
MIC [12]: 400 µg/mL (≈ 2410 µM)
MIC [13]: > 400 µg/mL
MIC [14]: > 400 µg/mL
MIC [15]: > 400 µg/mL
MIC [16]: > 400 µg/mL
MIC [17]: > 400 µg/mL
MIC [18]: > 400 µg/mL
zone of inhibition at 300 µg/disc [19]: 19 mm
zone of inhibition at 300 µg/disc [20]: 23 mm
zone of inhibition at 300 µg/disc [21]: 21 mm
Average FICI with ceftazidime [22]: 0.16
Interpretation of the average FICI with ceftazidime [22]: S (FICI ≤ 0.5, synergy)
Interpretation of the lowest FICI with ceftazidime [22]: S (FICI ≤ 0.5, synergy)
The lowest FICI with ceftazidime [22]: 0.08

OB(O)c1ccsc1B(O)O [5a, thiophene-2,3-diboronic acid]
MIC [1]: 100 µg/mL (≈ 582 µM)
MIC [2]: > 400 µg/mL
MIC [3]: 400 µg/mL (≈ 2330 µM)
MIC [4]: 100 µg/mL (≈ 582 µM)
MIC [5]: 400 µg/mL (≈ 2330 µM)
zone of inhibition at 0.4 mg/disc [5]: 13 mm
zone of inhibition at 0.4 mg/disc [6]: 15 mm
MIC [7]: > 400 µg/mL
MIC [8]: > 400 µg/mL
MIC [9]: 400 µg/mL (≈ 2330 µM)
MIC [10]: > 400 µg/mL
MIC [11]: > 400 µg/mL
MIC [12]: > 400 µg/mL
MIC [13]: > 400 µg/mL
MIC [14]: > 400 µg/mL
MIC [15]: > 400 µg/mL
MIC [16]: > 400 µg/mL
MIC [17]: > 400 µg/mL
MIC [18]: > 400 µg/mL
zone of inhibition at 300 µg/disc [19]: 15 mm
zone of inhibition at 300 µg/disc [20]: 22 mm
zone of inhibition at 300 µg/disc [21]: 20 mm
Average FICI with ceftazidime [22]: 0.30
Interpretation of the average FICI with ceftazidime [22]: S (FICI ≤ 0.5, synergy)
Interpretation of the lowest FICI with ceftazidime [22]: S (FICI ≤ 0.5, synergy)
The lowest FICI with ceftazidime [22]: 0.15

Source: publication PMC10648349, “Aromatic Diboronic Acids as Effective KPC/AmpC Inhibitors” (Molecules, 2023)
